Measurements reported in paper PMC9388906, “Dual inhibition of the Echinococcus multilocularis energy metabolism” (Frontiers in Veterinary Science, 2022).
Read-outs that look alike come from different tables or passages of the source.

Columns and labels:
[1] = test system: E. multilocularis metacestodes; experiment: Succinate concentrations in culture supernatants (malate dismutation activity); assay type: cell-based, Echinococcus multilocularis; details: 10 μM, 5 days
Method: Both compounds were tested either alone or in combination at 10 μM with the above-described PGI assay for 5 days for their activity against E. multilocularis metacestodes. PGI assays were done in triplicates and two times independently. […] To assess direct effects on the MD, succinate levels were measured in the supernatants of the PGI assay, as described below. To determine whether differences between groups were significant, data was subjected to student's t-test analysis and P-values below 0.05 are given.
Succinate measurements in supernatants of drug-treated E. multilocularis metacestodes was performed with the “Succinic Acid Assay Kit” (Megazyme, Bray, Ireland). […] 20 μL of each diluted (1:20) sample or standard was used in triplicate for succinate measurements in 96-well plates (flat bottom, Greiner Bio-One GmbH, Frickenhausen, Germany). The reaction mix buffer was prepared as described in the supplier manual: per well 180 μL H2O, 20 μL solvent 1 (buffer, pH 8.4, sodium azide 0.02% w/v), 20 μL solvent 2 (NADH plus stabilizer), 20 μL solvent 3 (ATP, PEP, and CoA) and 2 μL solvent 4 (pyruvate kinase plus L-lactate dehydrogenase suspension) were added. After a 180 s pre-incubation time, a first measurement at 340 nm was done on an EnSpire multilabel plate reader (PerkinElmer Life Sciences, Schwerzenbach, Switzerland). 10 μL solvent 5 (succinyl-CoA synthetase suspension; 1:10 diluted) were then added to each well and the plate was read at 340 nm for 1 h every minute. […] Succinate levels are shown as mean values with standard deviations of biological triplicates. To determine whether differences between groups were significant, data was subjected to student's t-test analysis and P-values below 0.05 are given.

[2] = test system: E. multilocularis GL cells (isolate Sval); experiment: GL cell viability assay (CellTiter-Glo), isolate Sval; assay type: cell-based, Echinococcus multilocularis; details: isolate Sval; 0.1 μM; 5 days; nitrogen atmosphere; mean (SD); active if <30%
Method: (§1) To assess the in vitro efficacy of ELQs against E. multilocularis, (a) the damage-marker phosphoglucose isomerase (PGI) assay was applied against metacestodes, and (b) the germinal layer (GL) cell viability assay was applied to measure effects on isolated GL cells. Both assays are described in more detail below. The drug testing strategy was as follows: PGI assay was first conducted for overview screening at 10 μM with the parasite isolates H95 and Sval. The GL cell viability assay was performed at 0.1 μM with both isolates H95 and Sval.
The isolation of E. multilocularis GL cells was done as described previously ([17]) with minor modifications. Fifteen units of GL cells were distributed to each well of a 384 well plate in a total volume of 12.5 μL conditioned medium. The different ELQs were added to the wells to 0.1 μM, in quadruplicates. As a negative control 0.1% DMSO was used. The 384-well plate was incubated for 5 days at 37°C under humid nitrogen atmosphere. Thereafter, viability of the GL cells under different drug treatments was assessed by CellTiter-Glo® (Promega AG, Dübendorf, Switzerland). The CellTiter-Glo reagent was complemented with 1% Tx-100. The luciferase bioluminescence was measured at 530 nm by using the Enspire multilabel reader (PerkinElmer Life Sciences, Schwerzenbach, Switzerland). Using Microsoft Excel, the blank values were subtracted from the experimental values and the relative viability compared to DMSO was calculated. Viabilities were calculated as mean values and standard deviations for each quadruplicate.

[3] = test system: E. multilocularis metacestodes (isolate Sval); experiment: PGI assay (damage marker release), metacestodes, isolate Sval; assay type: cell-based, Echinococcus multilocularis; details: isolate Sval, 10 μM
Method: as §1
(§2) The PGI assay measures the amount of PGI that metacestodes release into the medium when damaged ([17], [32]). The purification and in vitro drug incubation of E. multilocularis metacestodes was conducted according to Stadelmann et al. ([32]). In short, cultures were applied for in vitro drug testing at the age of 6-8 weeks. E. multilocularis metacestodes were therefore purified by the addition of 2% saccharose and washed extensively with PBS. Purified metacestodes were suspended 1:3 with DMEM (without phenol red, supplemented with 100 U/mL penicillin, 100 μg/mL streptomycin) and distributed in 48-well plates (1 mL/well, thus 300 μL pure metacestode vesicles per well). […] The corresponding DMSO concentration was used as negative control and Tx-100 (0.1% final concentration) was used for total damage (positive control). […] After 5 days, relative PGI activities were measured and calculated as percentage of the Tx-100 control as described previously in Rufener et al. ([17]). They were calculated as mean values and standard deviations for each triplicate. […] EC50 measurements were performed twice, and averages and standard deviations of these repeated tests are given.

[4] = test system: E. multilocularis metacestodes (isolate H95); experiment: PGI assay (damage marker release), metacestodes, isolate H95; assay type: cell-based, Echinococcus multilocularis; details: isolate H95, 5 days
Method: as §1, §2

[5] = test system: E. multilocularis metacestodes; experiment: Transmission electron microscopy of treated metacestodes; assay type: cell-based, Echinococcus multilocularis; details: 5 days
Method: E. multilocularis metacestodes treated with ELQ-400 (0.2, 1 and 2 μM, 5 days of incubation) under normoxic (37°C, 21% O2, 5% CO2, humid atmosphere) and anaerobic conditions (37°C, 80% N2, 10% CO2, and 10% H2, humid atmosphere) were processed for TEM as previously described ([17]). Metacestodes were washed in 100 mM sodium cacodylate buffer (pH 7.3), and were fixed in 2% glutaraldehyde in cacodylate buffer overnight at 4°C. Following several washes in cacodylate buffer, metacestodes were post-fixed in 2% osmium tetroxide in cacodylate buffer for 3–4 h, washed in water, and samples were treated with Uranyless™ solution (EMS, Hatfield, PA, USA) for 20 min, followed by several washes in distilled water. Specimens were dehydrated in a graded series of ethanol and were embedded in EPON-812 epoxy resin. Polymerization of the resin was carried out at 60°C for 24 h. Ultrathin sections were cut on a Reichert and Jung (Vienna) microtome, and were allowed to settle onto 400 mesh formvar carbon coated grids (Plano GmbH, Wetzlar, Germany). Specimens were contrasted with Uranyless and lead citrate, and were viewed on a FEI Morgagni Transmission Electron Microscope operating at 80 kV.

[6] = test system: Reuber rat hepatoma (Rh) cells; experiment: Mammalian cell toxicity, Alamar Blue assay; assay type: cell-based; details: Alamar blue, 5 days, range tested 30–0.23 μM, mean (SD) of two tests
Method: Compounds were added in a serial dilution (30–0.23 μM, 1:2 dilution steps) and in triplicates. Plates were incubated at 37°C, 5% CO2 and humid atmosphere for 5 days. Resazurin was added to a final concentration of 10 mg/L to each well, and fluorescence measured at 530 nm on an Enspire multilabel plate reader over 3 h. By using Microsoft Office Excel 2010 and a logit-log transformation of the relative growth, IC50 values were calculated. The test was performed twice for each compound, and respective averages and standard deviations are given.

## Cc1[nH]c2cc(F)cc(F)c2c(=O)c1-c1ccc(Oc2ccc(OC(F)(F)F)cc2)cc1 [ELQ-400]
[1]; anaerobic
  Release of succinate by metacestodes compared to DMSO control: significantly enhanced
[1]; normoxic
  Release of succinate by metacestodes compared to DMSO control: significantly enhanced
[2]
  GL cells, viability via ATP measurements, relative to DMSO control: 14.6 (8.6) %
[3]; 5 days, normoxic, mean (SD) of triplicates, active if >20%
  Metacestodes, PGI assay, relative to positive control Tx-100: 27 (10.5) %
[3]; threshold >20% of Tx-100
  Activity in PGI assay (activity call): activity
[4]; 10 μM, normoxic, mean (SD) of triplicates, active if >20%
  Metacestodes, PGI assay, relative to positive control Tx-100: 21.4 (2.5) %
[4]; PGI assay, range tested 30–0.12 μM, mean (SD) of two tests, read-out: EC50 metacestodes
  EC50: 1.06 µM
[5]; 0.2 μM, normoxic (21% O2)
  Ultrastructural effects on metacestodes (TEM): did not show obvious ultrastructural alterations
[5]; 1 μM, normoxic (21% O2)
  Ultrastructural effects on metacestodes (TEM): overall structural organization, especially of the GL: partially compromised
[5]; 2 μM, normoxic (21% O2)
  Ultrastructural effects on metacestodes (TEM): partial separation of the GL and the LL
[5]; anaerobic conditions, compared with damage at 1 and 2 μM under normoxic conditions
  Ultrastructural effects on metacestodes (TEM): did not exhibit such alterations
[6]; confluent Rh cells, read-out: IC50 Rh confluent
  IC50: > 30 µM
[6]; preconfluent Rh cells, read-out: IC50 Rh preconfluent
  IC50: 1.46 µM
